Data published in ChEMBL document CHEMBL1201862, “PubChem BioAssay data set” (2004).
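Growth conditions: 96-well plates. Treatment: test compound, 48 hours, 5 concentrations. Analysis: linear interpolation between bracketing concentrations; unreached endpoints set to highest concentration. Abbreviation: GI50, concentration required for 50% inhibition of growth.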 The source made the active and inactive calls. Rule as the data show it: active = GI50 up to about 1.1 µM and inactive = higher.

Legend:
Assay in all cases: inhibition of tumour cell growth, NCI panel, 48 h
LXFL 529 = test system: LXFL 529
786-0 = test system: 786-0
NCI-H226 = test system: NCI-H226
Malme-3M = test system: Malme-3M
HT-29 = test system: HT-29
CCRF-CEM = test system: CCRF-CEM
EKVX = test system: EKVX
OVCAR-4 = test system: OVCAR-4
SF-539 = test system: SF-539
DMS-114 = test system: DMS-114
SK-MEL-5 = test system: SK-MEL-5
UACC-62 = test system: UACC-62
LOX IMVI = test system: LOX IMVI
ACHN = test system: ACHN
SNB-78 = test system: SNB-78
M19-MEL = test system: M19-MEL
SK-OV-3 = test system: SK-OV-3
COLO 205 = test system: COLO 205
HOP-62 = test system: HOP-62
SK-MEL-28 = test system: SK-MEL-28
SN12C = test system: SN12C
SF-295 = test system: SF-295
NCI-H23 = test system: NCI-H23
NCI-H460 = test system: NCI-H460
HOP-92 = test system: HOP-92
MOLT-4 = test system: MOLT-4
CAKI-1 = test system: CAKI-1
RXF 393 = test system: RXF 393
A549 = test system: A549
SF-268 = test system: SF-268
U-251 = test system: U-251
DLD-1 = test system: DLD-1
RPMI-8226 = test system: RPMI-8226
HCT-116 = test system: HCT-116
HL-60 = test system: HL-60
M14 = test system: M14
SR = test system: SR
IGROV-1 = test system: IGROV-1
SW-620 = test system: SW-620
K562 = test system: K562
NCI-H522 = test system: NCI-H522
SNB-75 = test system: SNB-75
OVCAR-8 = test system: OVCAR-8
TK-10 = test system: TK-10
HCT-15 = test system: HCT-15
KM12 = test system: KM12
OVCAR-5 = test system: OVCAR-5
UO-31 = test system: UO-31
OVCAR-3 = test system: OVCAR-3
SK-MEL-2 = test system: SK-MEL-2
A498 = test system: A498
MCF7 = test system: MCF7
Hs-578T = test system: Hs-578T
T47D = test system: T47D
SNB-19 = test system: SNB-19
MDA-MB-231 = test system: MDA-MB-231
UACC-257 = test system: UACC-257
DU-145 = test system: DU-145
MDA-MB-435 = test system: MDA-MB-435
BT-549 = test system: BT-549
NCI/ADR-RES = test system: NCI/ADR-RES
MDA-N = test system: MDA-N
PC-3 = test system: PC-3
HCC 2998 = test system: HCC 2998

Measured: GI50

Brc1cccc(C2SCc3nc4ccccc4n32)c1 (stereo not drawn)
inactive: LXFL 529 20.6 µM | 786-0 17.5 µM | NCI-H226 11.2 µM | Malme-3M 24 µM | HT-29 20.6 µM | CCRF-CEM 26.2 µM | EKVX 18.7 µM | OVCAR-4 19 µM | SF-539 20.8 µM | DMS-114 13.7 µM | SK-MEL-5 6.4 µM | UACC-62 12.9 µM | LOX IMVI 14.6 µM | ACHN 16.3 µM | SNB-78 28.3 µM | M19-MEL 18.2 µM | SK-OV-3 21.6 µM | COLO 205 19.1 µM | HOP-62 15.3 µM | SK-MEL-28 17.1 µM | SN12C 13.8 µM | SF-295 27.1 µM | NCI-H23 13.9 µM | NCI-H460 23.6 µM | HOP-92 11.1 µM | MOLT-4 22.6 µM | CAKI-1 30.2 µM | RXF 393 5.93 µM | A549 32.7 µM | SF-268 33.5 µM | U-251 17 µM | DLD-1 12.9 µM | RPMI-8226 12.5 µM | HCT-116 14.5 µM | HL-60 7.94 µM | M14 22.5 µM | SR 15.7 µM | IGROV-1 21.7 µM | SW-620 31.8 µM | K562 9.98 µM | NCI-H522 13.9 µM | OVCAR-8 22.5 µM | TK-10 25.1 µM | KM12 16.1 µM | OVCAR-5 6.01 µM | UO-31 9.46 µM | OVCAR-3 15.2 µM
active: SNB-75 0.0533 µM
15.2 µM: HCT-15

OC(CC1CCCCN1)c1ccc2c(c1)oc1ccccc12 (stereo not drawn)
inactive: SK-MEL-2 34 µM | 786-0 > 100 µM | NCI-H226 74.5 µM | A498 23.4 µM | Malme-3M 38.9 µM | MCF7 83 µM | Hs-578T 87.7 µM | HT-29 28.2 µM | CCRF-CEM 33.3 µM | T47D > 100 µM | SNB-19 > 100 µM | EKVX 49 µM | OVCAR-4 94.2 µM | SF-539 46.1 µM | SK-MEL-5 17.8 µM | UACC-62 22.6 µM | LOX IMVI 56 µM | ACHN > 100 µM | MDA-MB-231 > 100 µM | SK-OV-3 > 100 µM | COLO 205 19.1 µM | HOP-62 91.2 µM | SK-MEL-28 34 µM | SN12C > 100 µM | SF-295 99.1 µM | NCI-H23 > 100 µM | NCI-H460 43.6 µM | HOP-92 48.3 µM | MOLT-4 28.2 µM | UACC-257 31 µM | DU-145 > 100 µM | CAKI-1 52.8 µM | MDA-MB-435 42.7 µM | RXF 393 57.3 µM | A549 > 100 µM | SF-268 > 100 µM | U-251 > 100 µM | BT-549 > 100 µM | RPMI-8226 46.1 µM | HCT-116 85.3 µM | HL-60 > 100 µM | M14 18.8 µM | NCI/ADR-RES > 100 µM | SR 67.3 µM | MDA-N 40.8 µM | IGROV-1 55.6 µM | SW-620 > 100 µM | PC-3 71 µM | K562 39.5 µM | HCC 2998 30.4 µM | NCI-H522 79.8 µM | SNB-75 39.6 µM | OVCAR-8 84.1 µM | TK-10 72.1 µM | KM12 > 100 µM | OVCAR-5 50.1 µM | UO-31 37.2 µM | OVCAR-3 > 100 µM
52.2 µM: HCT-15
